Experimental data from patent US20140080810A1 (Exelixis, Inc., priority 2010, published 2014).
Like-named read-outs stand apart in the source and are kept apart here.

Key:
PI3Kδ = PI3Kδ (Homo sapiens, UniProt O00329); experiment: PI3K Biochemical Assay; conditions: PIP2 used as substrate; read-out: PI3K biochemical IC50 values P13Kδ
Experimental: (§1) PI3Kα activity is measured as the percent of ATP consumed following the kinase reaction using luciferase-luciferin-coupled chemiluminescence. Reactions were conducted in 384-well white, medium binding microtiter plates (Greiner). Kinase reactions were initiated by combining test compounds, ATP, substrate (PIP2), and kinase in a 20 μL volume in a buffer solution. The standard PI3Kalpha assay buffer is composed 50 mM Tris, pH 7.5, 1 mM EGTA, 10 mM MgCl2, 1 mM DTT and 0.03% CHAPS. The standard assay concentrations for enzyme, ATP, and substrate are 1.5 nM, 1 μM, and 10 μM, respectively. The reaction mixture was incubated at ambient temperature for approximately 2 h. Following the kinase reaction, a 10 μL aliquot of luciferase-luciferin mix (Promega Kinase-Glo) was added and the chemiluminescence signal measured using a Victor2 plate reader (Perkin Elmer). Total ATP consumption was limited to 40-60% and IC50 values of control compounds correlate well with literature references. Substituting PI3Kα with PI3Kβ, PI3Kγ, or PI3Kδ, the inhibitory activity of the compounds for the other isoforms of I3K were measured.

PI3Kγ = PI3Kγ (Homo sapiens, UniProt P48736); experiment: PI3K Biochemical Assay; conditions: PIP2 used as substrate
Experimental: as §1

PI3Kα E545K = PI3Kα E545K (Homo sapiens, UniProt P42336, E545K); experiment: PI3K Biochemical Assay; conditions: PIP2 used as substrate
Experimental: as §1

PI3Kα H1047R = PI3Kα H1047R (Homo sapiens, UniProt P42336, H1047R); experiment: PI3K Biochemical Assay; conditions: PIP2 used as substrate
Experimental: as §1

[1] = tested on: pAKT (T308) in PC-3 cells (PTEN-null); experiment: pAKT (T308) ELISA Assay; type: cell-based; conditions: Homo sapiens
Experimental: MCF-7 cells (ATCC) cells were seeded at 24000 cells per well in 96-well plates (Corning, 3904) in DMEM (Cellgro) containing 10% FBS (Cellgro), 1% NEAA (Cellgro) and 1% penicillin-streptomycin (Cellgro). Cells were incubated at 37° C., 5% CO2 for 48 h, and the growth medium was replaced with serum-free DMEM or in medium containing 0.4% BSA. Serial dilutions of the test Compound in 0.3% DMSO (vehicle) were added to the cells and incubated for 3 h. At the end of the incubation period, cells were stimulated for 10 minutes by the addition of L-IGF (Sigma, I-1271) at a final concentration of 100 ng/ml. Afterwards, media was discarded from cell plates and 110 μl/well of cold lysis buffer (see table below) were added. Cell plates were incubated on ice and then put on shaker in 4° C. cold room for 1 h. Two capture plates (Thermo Scientific, Reacti-bind plate, 15042) were prepared for each cell plate by pre-coating with capture Akt antibody from the two sandwich ELISA antibody pairs used (Cell Signaling Technology 7142 and 7144). The Akt capture antibodies were diluted 1:100 in PBS and 100 μl of diluted capture antibody was added per well. Capture plates were incubated at 4 C overnight. […] After 1 h of cell lysis, 85 μl of cell lysate/well was transferred to the capture plate for detection of pAkt(T308). 15 μl of cell lysate was transferred from same well to the second capture plate for detection of total Akt1. After incubation overnight at 4° C., plates were washed 3 times with 200 μL TBST. Primary antibodies, diluted 1:100 in blocking buffer, were added to the corresponding capture plates for pAkt(T308) (Cell Signaling Technology, 7144) and total Akt1 (Cell Signaling Technology, 7142) detection and incubated at room temperature for 1 h. Plates were washed 3 times with 200 μL of TBST. Goat anti-mouse secondary antibody (Cell Signaling Technology, 7076) conjugated to HRP was diluted 1:1000 in blocking buffer and 100 μl were added to each well and incubated for 30 minutes at room temperature. Plates were then washed 3 times with 200 μL of TBST. 100 μL of SuperSignal ELISA Femto stable peroxidase solution (Thermo Scientific, 37075) was added to each well. After 1 minute incubation, chemiluminescence was read on a Wallac Victor2 1420 multilabel counter. IC50 values were determined based on the ratio of pAkt(T308) to total Akt1 signal for Compound treated wells, normalized to the DMSO-treated control wells.
In another embodiment, the pAKT ELISA Assay was performed by seeding cells onto 96-well plates (Corning, 3904) in their respective growth media at the densities listed in Table 5. Cells were incubated at 37° C., 5% CO2 for 48 h (except MDA-MB-453 cells which were cultured in the absence of CO2). Compounds were serially diluted in DMSO and subsequently diluted in serum-free DMEM. Test compounds were added to cells in serum-free DMEM at a final concentration of 0.3% DMSO and incubated for 3 h. Cells were lysed with 130 μL of ice-cold RIPA lysis buffer (50 mM Tris-HCl, pH 7.5; 0.5% sodium deoxycholic acid; 1% Triton X-100; 0.1% SDS; 150 mM NaCl) with protease and phosphatase inhibitors (1 mM EDTA, 1 mM NaF, 20 mM β-glycerophosphate, 1 mM Na-orthovanadate, Complete-Mini EDTA-free, Roche, 11836170001, and Phosphatase Inhibitor Cocktail I, Sigma, P2850), directly in 96-well plates. Cells were lysed on ice for 60-120 min at 4° C. The supernatants were added directly to capture ELISA plates previously pre-coated with rabbit anti-AKT capture antibody. ELISA assays for pAKT(T308) and total AKT were performed with the pAKT(T308) ELISA kit (Cell Signaling Technology, 7144) and AKT1 ELISA kit (Cell Signaling Technology, 7142). For the pAKT(T308) ELISA, 85 μL of cell lysate was added to each well. For the total AKT1 ELISA, 15 μL of cell lysate and 85 μL of Starting Block buffer (Pierce, 37543) were added to each well.

[2] = IGF1 stimulation, read-out: pAKT (T308) IC50 PC# PTEN-null IGF1
[3] = LPA stimulation, read-out: pAKT (T308) IC50 PC# PTEN-null LPA

Sequence of PI3Kγ (P48736 whole entry): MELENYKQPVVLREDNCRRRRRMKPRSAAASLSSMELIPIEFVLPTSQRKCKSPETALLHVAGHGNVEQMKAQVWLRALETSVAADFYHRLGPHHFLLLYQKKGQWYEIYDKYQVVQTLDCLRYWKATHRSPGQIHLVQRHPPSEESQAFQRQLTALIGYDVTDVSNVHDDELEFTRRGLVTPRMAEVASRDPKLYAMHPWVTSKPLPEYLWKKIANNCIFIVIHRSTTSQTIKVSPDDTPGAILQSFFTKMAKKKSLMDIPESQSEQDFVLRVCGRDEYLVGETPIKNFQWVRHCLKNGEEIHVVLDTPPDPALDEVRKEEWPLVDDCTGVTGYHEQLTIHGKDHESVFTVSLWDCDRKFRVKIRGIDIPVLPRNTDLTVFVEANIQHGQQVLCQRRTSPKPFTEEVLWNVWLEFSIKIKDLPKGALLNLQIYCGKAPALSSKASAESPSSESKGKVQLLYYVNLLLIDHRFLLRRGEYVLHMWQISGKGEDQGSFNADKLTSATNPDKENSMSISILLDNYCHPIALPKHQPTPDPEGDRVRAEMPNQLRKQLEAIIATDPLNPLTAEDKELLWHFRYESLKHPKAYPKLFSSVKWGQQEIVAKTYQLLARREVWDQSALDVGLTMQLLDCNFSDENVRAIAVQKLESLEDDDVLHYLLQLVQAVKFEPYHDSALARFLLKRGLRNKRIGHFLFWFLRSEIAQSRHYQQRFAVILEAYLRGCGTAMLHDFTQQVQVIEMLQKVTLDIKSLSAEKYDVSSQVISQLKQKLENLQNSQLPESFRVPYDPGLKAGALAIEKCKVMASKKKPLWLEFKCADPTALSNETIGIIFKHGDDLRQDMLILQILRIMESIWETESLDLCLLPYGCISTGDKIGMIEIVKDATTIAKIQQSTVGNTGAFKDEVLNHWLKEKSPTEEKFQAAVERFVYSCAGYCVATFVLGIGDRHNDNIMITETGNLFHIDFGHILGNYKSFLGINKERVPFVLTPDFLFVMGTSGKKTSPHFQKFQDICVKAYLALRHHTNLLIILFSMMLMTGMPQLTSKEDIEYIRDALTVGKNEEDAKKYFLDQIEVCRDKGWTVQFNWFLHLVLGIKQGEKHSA
Sequence of PI3Kα H1047R (P42336 whole entry H1047R): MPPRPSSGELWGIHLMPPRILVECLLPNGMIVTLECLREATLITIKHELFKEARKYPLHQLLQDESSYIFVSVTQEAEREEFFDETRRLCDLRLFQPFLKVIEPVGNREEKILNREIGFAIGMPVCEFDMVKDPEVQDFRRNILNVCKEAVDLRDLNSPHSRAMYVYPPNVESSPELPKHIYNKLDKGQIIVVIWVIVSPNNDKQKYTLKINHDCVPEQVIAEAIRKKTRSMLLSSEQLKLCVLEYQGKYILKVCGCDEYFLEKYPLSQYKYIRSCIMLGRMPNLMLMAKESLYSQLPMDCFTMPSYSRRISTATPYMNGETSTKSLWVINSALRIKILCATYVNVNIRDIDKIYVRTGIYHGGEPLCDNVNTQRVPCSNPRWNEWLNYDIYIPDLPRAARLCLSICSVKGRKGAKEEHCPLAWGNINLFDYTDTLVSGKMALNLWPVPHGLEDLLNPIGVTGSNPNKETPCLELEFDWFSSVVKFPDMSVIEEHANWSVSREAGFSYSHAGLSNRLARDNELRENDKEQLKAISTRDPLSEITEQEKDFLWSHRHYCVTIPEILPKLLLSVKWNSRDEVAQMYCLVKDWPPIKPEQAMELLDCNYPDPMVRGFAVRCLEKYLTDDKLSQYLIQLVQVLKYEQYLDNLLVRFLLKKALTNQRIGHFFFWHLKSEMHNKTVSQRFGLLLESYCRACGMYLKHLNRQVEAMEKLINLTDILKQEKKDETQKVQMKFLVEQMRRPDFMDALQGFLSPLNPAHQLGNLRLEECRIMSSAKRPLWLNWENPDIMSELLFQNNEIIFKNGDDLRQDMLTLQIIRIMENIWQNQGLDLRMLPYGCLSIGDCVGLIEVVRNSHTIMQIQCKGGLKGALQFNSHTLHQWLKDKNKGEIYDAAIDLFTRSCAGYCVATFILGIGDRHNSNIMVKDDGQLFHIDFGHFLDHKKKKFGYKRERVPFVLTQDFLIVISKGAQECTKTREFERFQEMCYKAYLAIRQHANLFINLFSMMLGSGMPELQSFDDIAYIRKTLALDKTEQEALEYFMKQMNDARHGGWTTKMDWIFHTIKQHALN
Sequence of PI3Kα H1047R (P27986 whole entry partner): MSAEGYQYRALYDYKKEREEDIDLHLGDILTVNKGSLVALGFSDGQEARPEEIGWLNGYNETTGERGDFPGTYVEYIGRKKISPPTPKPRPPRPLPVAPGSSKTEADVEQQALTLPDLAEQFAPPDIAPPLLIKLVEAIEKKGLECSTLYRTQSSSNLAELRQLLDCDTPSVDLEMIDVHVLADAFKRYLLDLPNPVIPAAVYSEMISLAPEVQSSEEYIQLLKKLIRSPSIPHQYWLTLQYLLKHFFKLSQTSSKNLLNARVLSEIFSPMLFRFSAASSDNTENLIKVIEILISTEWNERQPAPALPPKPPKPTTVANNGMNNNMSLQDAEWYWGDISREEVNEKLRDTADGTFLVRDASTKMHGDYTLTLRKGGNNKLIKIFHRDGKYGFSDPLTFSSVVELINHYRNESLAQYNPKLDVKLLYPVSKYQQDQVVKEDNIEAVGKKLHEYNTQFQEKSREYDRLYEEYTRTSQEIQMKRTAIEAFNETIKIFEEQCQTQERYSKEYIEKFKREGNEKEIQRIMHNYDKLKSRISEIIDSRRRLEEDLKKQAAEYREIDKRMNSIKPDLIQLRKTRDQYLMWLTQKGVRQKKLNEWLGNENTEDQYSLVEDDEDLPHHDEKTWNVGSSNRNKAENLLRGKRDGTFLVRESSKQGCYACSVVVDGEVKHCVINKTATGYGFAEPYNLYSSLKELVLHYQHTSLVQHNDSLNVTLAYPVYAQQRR
Sequence of PI3Kδ (O00329 whole entry): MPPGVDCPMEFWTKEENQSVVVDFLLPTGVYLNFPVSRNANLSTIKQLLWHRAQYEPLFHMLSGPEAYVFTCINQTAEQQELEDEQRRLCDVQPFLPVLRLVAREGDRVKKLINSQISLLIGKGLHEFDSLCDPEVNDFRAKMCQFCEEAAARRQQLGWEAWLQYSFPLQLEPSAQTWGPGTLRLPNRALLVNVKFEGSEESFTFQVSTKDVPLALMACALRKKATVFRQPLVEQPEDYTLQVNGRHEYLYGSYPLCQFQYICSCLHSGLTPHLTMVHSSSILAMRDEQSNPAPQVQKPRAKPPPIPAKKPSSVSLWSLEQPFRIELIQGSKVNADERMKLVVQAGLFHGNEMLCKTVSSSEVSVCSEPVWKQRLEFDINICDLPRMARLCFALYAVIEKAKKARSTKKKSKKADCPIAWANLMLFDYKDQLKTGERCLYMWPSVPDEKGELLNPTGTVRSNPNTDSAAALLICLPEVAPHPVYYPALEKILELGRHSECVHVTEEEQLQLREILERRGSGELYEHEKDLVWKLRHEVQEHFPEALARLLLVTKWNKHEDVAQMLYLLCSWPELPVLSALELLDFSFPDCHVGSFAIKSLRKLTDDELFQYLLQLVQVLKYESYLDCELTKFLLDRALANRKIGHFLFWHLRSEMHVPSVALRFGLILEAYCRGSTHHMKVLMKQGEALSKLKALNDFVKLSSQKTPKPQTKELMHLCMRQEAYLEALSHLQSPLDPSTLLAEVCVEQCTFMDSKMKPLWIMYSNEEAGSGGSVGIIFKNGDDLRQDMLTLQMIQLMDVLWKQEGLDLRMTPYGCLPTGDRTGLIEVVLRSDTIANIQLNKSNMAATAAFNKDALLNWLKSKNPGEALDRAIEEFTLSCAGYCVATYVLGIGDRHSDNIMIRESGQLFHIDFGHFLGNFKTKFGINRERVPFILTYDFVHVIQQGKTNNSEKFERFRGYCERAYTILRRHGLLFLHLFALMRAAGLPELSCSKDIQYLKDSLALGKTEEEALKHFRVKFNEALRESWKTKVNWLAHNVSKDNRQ
Sequence of PI3Kδ (P27986 whole entry partner): as the sequence (P27986 whole entry partner) above
Sequence of PI3Kα E545K (P42336 whole entry E545K): as the sequence (P42336 whole entry H1047R) above, with E545K, R1047H counted along it
Sequence of PI3Kα E545K (P27986 whole entry partner): as the sequence (P27986 whole entry partner) above

Compound | IC50 (PI3Kδ) [nM] | IC50 (PI3Kγ) [nM] | IC50 (PI3Kα E545K) [nM] | IC50 (PI3Kα H1047R) [nM] | IC50 [1, 2] [nM] | IC50 [1, 3] [nM]
Cc1nc2ncc(-c3ccc4c(c3)CN(c3nc(CN(C)C)nc5c3CC(C)(C)CC5)CCO4)cc2[nH]1 [Compound 693] | 575 | 1120 | 5 | 3 | – | –
Cc1nc2cc(-c3ccc4c(c3)CN(c3nc(CN(C)C)nc(C)c3C(C)C)CCO4)cnc2[nH]1 [Compound 694] | 831 | 1850 | 6 | 5 | 231 | 571
COc1ccc2c(N3CCOc4ccc(-c5cnc6nc(C)[nH]c6c5)cc4C3)nc(CN(C)C)nc2c1 [Compound 696] | 149 | 1800 | 9 | 5 | 1680 | 1860
CCNc1nc2ccc(-c3ccc4c(c3)CN(c3ccnc5cc(F)ccc35)CCO4)cc2[nH]1 [Compound 698] | 162 | 159 | 6 | 7 | 2870 | 4540
CCNc1nc2ccc(-c3ccc4c(c3)CN(c3ncnc(NCC)c3C)CCO4)cc2[nH]1 [Compound 699] | 440 | 158 | 5 | 6 | 2120 | 3800
